Laboratory results: publication PMC10591299, “Targeting SHP2 with an Active Site Inhibitor Blocks Signaling and Breast Cancer Cell Phenotypes” (ACS Bio & Med Chem Au, 2023)

Assays:
MDA-MB468 cells = test: Mammosphere formation in suspension culture, MDA-MB468; assay type: cell-based; details: MDA-MB468, 500 nM, 10 days, versus vehicle
Protocol: (§1) Since SHP2 is essential for the growth and transformation of BC cells,[8],[9],[11] we determined the effect of SHP2 inhibition with CNBCA in 2D and 3D culture systems. For the effect on cell growth, BC cells (BT474 and MDA-MB468) were seeded in 2D culture and treated with a single concentration of CNBCA (500 nM), the concentration that provided a 50% inhibition of SHP2 mediated signaling in BT474 cells. Images were collected at the start and every 24 h for a total of 72 h (3 days). […] For effect on anchorage independent growth, approximately 10^6 cells were seeded in soft agar as described previously,[24] and treated with CNBCA at 500 nM concentration for 10 days with refeeding and adjustment of compound concentration. […] Finally, the effect of CNBCA on cancer stem cell properties was determined by the suspension assay, in which only cells with stem-like properties only can grow and form mammospheres.[7],[24],[36] Approximately 10^6 cells were seeded in nonadherent 6 cm plates and treated with CNBCA (500 nM) for 10 days with complementation of media and drug concentration.
To further evaluate the anti-breast cancer cell effect of CNBCA, we treated cells seeded in a suspension culture known as the mammosphere assay. In this assay, cells with cancer stem cell properties can grow and form sphere-like cellular aggregates known as mammospheres.[7],[38] […]

BT474 cells = test: Colony formation in soft agar, BT474; assay type: cell-based; details: BT474, 500 nM, 10 days, versus vehicle
Protocol: as §1
For colony formation studies, we used the soft agar assay, which keeps cells anchorage independently, allowing determination on the transformation phenotype of cancer cells, including breast cancer cells.[11],[35] For this assay, we first prepared a 5% stock suspension in PBS by boiling it in a microwave. […]

SHP2 = target: T1, SHP2 (Homo sapiens, UniProt Q06124); test: PTPase assay, GST-fusion PTP domain of SHP2, DiFMUP substrate; assay type: biochemical
T1 construct: the GST fusion of the PTP domains of SHP2, SHP1, and PTP1B were produced and purified as reported by us previously; GST; made in house
T1 sequence (Q06124 247-517 limits assumed): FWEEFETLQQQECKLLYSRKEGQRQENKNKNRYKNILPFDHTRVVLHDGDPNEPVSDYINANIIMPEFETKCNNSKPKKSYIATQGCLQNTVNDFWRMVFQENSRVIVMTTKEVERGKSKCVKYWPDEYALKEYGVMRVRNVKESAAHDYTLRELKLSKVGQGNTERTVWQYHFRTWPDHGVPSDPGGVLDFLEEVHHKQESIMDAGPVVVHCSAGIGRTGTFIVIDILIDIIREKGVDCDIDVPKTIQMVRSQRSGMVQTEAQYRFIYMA
Protocol: After completion of synthesis, both CNBCA and CNBBA were purified on silica gel, and purity was determined by HPLC. The purified compounds were then tested for their effect on the SHP2 enzyme activity and on the activity of the selected control PTPs (SHP1 and PTP1B) by the phosphotyrosyl phosphatase (PTPase) assay as described previously.[30],[31] First, the GST fusion of the PTP domains of SHP2, SHP1, and PTP1B were produced and purified as reported by us previously.[32] The reactions were performed in a buffer containing 10 mM Tris-HCl (pH 7.2), 100 mM NaCl, 1 mM EDTA, 1 mM dithiothreitol (DTT), and 0.01% Tween-20. Briefly, CNBCA or CNBBA was added first in a serial dilution ranging from 100 μM to 97 nM followed by the enzymes (SHP2, SHP1, or PTP1B) to a final concentration of 1 nM. After 5 min of incubation at room temperature, the reactions were started by adding the artificial substrate DiFMUP (6,8-difluoro-4-methylumbelliferyl phosphate) to a final concentration of 20 μM for SHP2, 35 μM for SHP1, and 10 μM for PTP1B in a reaction volume of 100 μL; variations in DiFMUP concentrations reflect the reported Km values for the respective PTPs.[33] The complete mixture was incubated at 37 °C for 20 min, and fluorescence intensity was measured by the Synergy 4 plate reader at the excitation and emission wavelengths of 360 and 460 nm, respectively. The half inhibitory concentration (IC50) value of each compound was calculated and plotted using Graphpad Prism software.
We used the PTPase assay described previously[30],[31] to evaluate the effect of the newly synthesized compounds on the enzymatic activity of SHP2, SHP1, and PTP1B. The PTP domains of the indicated proteins were prepared as reported by us recently.[32] The artificial PTP substrate DiFMUP (6,8-Difluoro-4-Methylumbelliferyl Phosphate) was purchased from Invitrogen. The purified proteins were dialyzed into a phosphatase buffer containing 10 mM Tris-HCl ([…]), 100 mM NaCl, 1.0 mM EDTA, 1.0 mM dithiothreitol (DTT), and 0.01% Tween-20. Briefly, the PTPase reactions were performed in 100 μL volume containing 1 nM enzyme, inhibitors in serial dilutions (12 nM to 100 μM), and DiFMUP to a final concentration of 20 μM for SHP2, 35 μM for SHP1, and 10 μM for PTP1B. Differences in DiFMUP concentrations reflect the reported Km values for each PTP.[37] The mixtures were incubated at 37 °C for 20 min and transferred to 96 well plates, and the fluorescence intensity was measured by a Synergy 4 plate reader at the excitation and emission wavelengths of 360 and 460 nm, respectively. Graphpad Prism software was used to calculate the IC50 values.

SMILES: CCCCCCCCCOc1ccc(-c2ccc(C(=O)O)cc2)cc1CCCC(=O)O [CNBCA, 3′-(3-carboxypropyl)-4′-(nonyloxy)-[1,1′-biphenyl]-4-carboxylic acid]
- mammosphere formation (MDA-MB468 cells): fewer and smaller mammospheres
- colony formation in soft agar (BT474 cells): fewer and smaller colonies
- IC50 (SHP2; PTP domain, 1 nM enzyme, 20 μM DiFMUP, 37 °C 20 min): 0.87 µM
- selectivity ratio SHP2 (reference) (SHP2; SHP2 IC50 as reference): 1.0
- fold difference (SHP2; SHP2 IC50 relative to CNBCA): 1.0 fold
